pIC50: −log10 of the molar value.
What follows are molecules tested on HIV-1 (assay: HOS HIV-1 infectivity assay). Settings: Human immunodeficiency virus 1, BAL / IIIB, HOS cells expressing hCXCR4/hCCR5/hCD4/pHIV-LTR-luciferase, virus strain (Ba-L or IIIB) not given, read-out: Activity Level.
Format: cell-based
Experimental: Compounds were profiled against two HIV-1 viruses, the M-tropic (CCR5 utilizing) Ba-L strain and the T-tropic (CXCR4 utilizing) IIIB strain. Both viruses were propagated in human peripheral blood lymphocytes. Compounds were tested for there ability to block infection of the HOS cell line (expressing hCXCR4/hCCR5/hCD4/pHIV-LTR-luciferase) by either HIV-1 Ba-L or HIV-1 IIIB. Compound cytotoxicity was also examined in the absence of virus addition.
HOS cells (expressing hCXCR4/hCCR5/hCD4/pHIV-LTR-luciferase) were harvested and diluted in Dulbeccos modified Eagles media supplemented with 2% FCS and non-essential amino acid to a concentration of 60,000 cells/ml. The cells were plated into 96-well plates (100 ul per well) and the plates were placed in a tissue culture incubator (37° C.; 5% CO2/95% air) for a period of 24h.
Subsequently, 50 ul of the desired drug solution (4 times the final concentration) was added to each well and the plates were returned to the tissue culture incubator (37° C.; 5% CO2/95% air) for 1h. Following this incubation 50 ul of diluted virus was added to each well (approximately 2 million RLU per well of virus). The plates were returned to the tissue culture incubator (37° C.; 5% CO2/95% air) and were incubated for a further 96h.
Following this incubation the endpoint for the virally infected cultures was quantified following addition of Steady-Glo Luciferase assay system reagent (Promega, Madison, Wis.). Cell viability or non-infected cultures was measured using a CellTiter-Glo luminescent cell viability assay system (Promega, Madison, Wis.). All luminescent readouts are performed on a Topcount luminescence detector (Packard, Meridien, Conn.).

SMILES	pIC50
CN(C)Cc1c(CN(C)[C@H]2CCCc3cccnc32)nc2cccc(N3CCN(C)CC3)n12 [Example 10, (8S)—N-{[3-[(Dimethylamino)methyl]-5-(4-methyl-1-piperazinyl)imidazo[1,2-a]pyridin-2-yl]methyl}-N-methyl-5,6,7,8-tetrahydro-8-quinolinamine]	> 7.00
CCN(CC)Cc1c(CN(C)[C@H]2CCCc3cccnc32)nc2cccc(N3CCN(C)CC3)n12 [Example 11, (8S)—N-{[3-[(Diethylamino)methyl]-5-(4-methyl-1-piperazinyl)imidazo[1,2-a]pyridin-2-yl]methyl}-N-methyl-5,6,7,8-tetrahydro-8-quinolinamine]	> 7.00
CN1CCN(c2cccc3nc(CN(C)[C@H]4CCCc5cccnc54)c(CN4CCCC4)n23)CC1 [Example 12, (8S)—N-Methyl-N-{[5-(4-methyl-1-piperazinyl)-3-(1-pyrrolidinylmethyl)imidazo[1,2-a]pyridin-2-yl]methyl}-5,6,7,8-tetrahydro-8-quinolinamine]	> 7.00
CN1CCN(c2cccc3nc(CN(C)[C@H]4CCCc5cccnc54)c(CN(CCO)CCO)n23)CC1 [Example 13, 2,2′-({[5-(4-Methyl-1-piperazinyl)-2-({methyl[(8S)-5,6,7,8-tetrahydro-8-quinolinyl]amino}methyl)imidazo[1,2-a]pyridin-3-yl]methyl}imino)diethanol]	> 7.00
CCN(CCO)Cc1c(CN(C)[C@H]2CCCc3cccnc32)nc2cccc(N3CCN(C)CC3)n12 [Example 14, 2-(Ethyl{[5-(4-methyl-1-piperazinyl)-2-({methyl[(8S)-5,6,7,8-tetrahydro-8-quinolinyl]amino}methyl)imidazo[1,2-a]pyridin-3-yl]methyl}amino)ethanol]	> 7.00
CN1CCN(c2cccc3nc(CN(C)[C@H]4CCCc5cccnc54)c(CN4CCC(O)C4)n23)CC1 (stereo partly drawn) [Example 15, 1-{[5-(4-Methyl-1-piperazinyl)-2-({methyl[(8S)-5,6,7,8-tetrahydro-8-quinolinyl]amino}methyl)imidazo[1,2-a]pyridin-3-yl]methyl}-3-pyrrolidinol]	> 7.00
CN1CCN(c2cccc3nc(CN(C)[C@H]4CCCc5cccnc54)c(CN4CCOCC4)n23)CC1 [Example 16, (8S)—N-Methyl-N-{[5-(4-methyl-1-piperazinyl)-3-(4-morpholinylmethyl)imidazo[1,2-a]pyridin-2-yl]methyl}-5,6,7,8-tetrahydro-8-quinolinamine]	> 7.00
CNCc1c(CN(C)[C@H]2CCCc3cccnc32)nc2cccc(N3CCN(C)CC3)n12 [Example 19, (8S)—N-Methyl-N-{[3-[(methylamino)methyl]-5-(4-methyl-1-piperazinyl)imidazo[1,2-a]pyridin-2-yl]methyl}-5,6,7,8-tetrahydro-8-quinolinamine]	> 7.00
CCNCc1c(CN(C)[C@H]2CCCc3cccnc32)nc2cccc(N3CCN(C)CC3)n12 [Example 20, (8S)—N-{[3-[(Ethylamino)methyl]-5-(4-methyl-1-piperazinyl)imidazo[1,2-a]pyridin-2-yl]methyl}-N-methyl-5,6,7,8-tetrahydro-8-quinolinamine]	> 7.00
CN1CCN(Cc2c(CN(C)[C@H]3CCCc4cccnc43)nc3cccc(N4CCN(C)CC4)n23)CC1 [Example 21, (8S)—N-Methyl-N-({5-(4-methyl-1-piperazinyl)-3-[(4-methyl-1-piperazinyl)methyl]imidazo[1,2-a]pyridin-2-yl}methyl)-5,6,7,8-tetrahydro-8-quinolinamine]	> 7.00
CN1CCN(c2cccc3nc(CN(C)[C@H]4CCCc5cccnc54)c(CN4CCCCC4)n23)CC1 [Example 22, (8S)—N-Methyl-N-{[5-(4-methyl-1-piperazinyl)-3-(1-piperidinylmethyl)imidazo[1,2-a]pyridin-2-yl]methyl}-5,6,7,8-tetrahydro-8-quinolinamine]	> 7.00
CC(C)NCc1c(CN(C)[C@H]2CCCc3cccnc32)nc2cccc(N3CCN(C)CC3)n12 [Example 23, (8S)—N-Methyl-N-{[3-{[(1-methylethyl)amino]methyl}-5-(4-methyl-1-piperazinyl)imidazo[1,2-a]pyridin-2-yl]methyl}-5,6,7,8-tetrahydro-8-quinolinamine]	> 7.00
CN1CCN(c2cccc3nc(CN(C)[C@H]4CCCc5cccnc54)c(CN)n23)CC1 [Example 24, (8S)—N-{[3-(Aminomethyl)-5-(4-methyl-1-piperazinyl)imidazo[1,2-a]pyridin-2-yl]methyl}-N-methyl-5,6,7,8-tetrahydro-8-quinolinamine]	> 7.00
CC(=O)NCc1c(CN(C)[C@H]2CCCc3cccnc32)nc2cccc(N3CCN(C)CC3)n12 [Example 25, N-{[5-(4-Methyl-1-piperazinyl)-2-({methyl[(8S)-5,6,7,8-tetrahydro-8-quinolinyl]amino}methyl)imidazo[1,2-a]pyridin-3-yl]methyl}acetamide]	> 7.00
CCC(=O)NCc1c(CN(C)[C@H]2CCCc3cccnc32)nc2cccc(N3CCN(C)CC3)n12 [Example 26, N-{[5-(4-Methyl-1-piperazinyl)-2-({methyl[(8S)-5,6,7,8-tetrahydro-8-quinolinyl]amino}methyl)imidazo[1,2-a]pyridin-3-yl]methyl}propanamide]	> 7.00
CC(C)C(=O)NCc1c(CN(C)[C@H]2CCCc3cccnc32)nc2cccc(N3CCN(C)CC3)n12 [Example 27, 2-Methyl-N-{[5-(4-methyl-1-piperazinyl)-2-({methyl[(8S)-5,6,7,8-tetrahydro-8-quinolinyl]amino}methyl)imidazo[1,2-a]pyridine-3-yl]methyl}propanamide]	> 7.00
CCC(C)C(=O)NCc1c(CN(C)[C@H]2CCCc3cccnc32)nc2cccc(N3CCN(C)CC3)n12 (stereo partly drawn) [Example 28, 2-Methyl-N-{[5-(4-methyl-1-piperazinyl)-2-({methyl[(8S)-5,6,7,8-tetrahydro-8-quinolinyl]amino}methyl)imidazo[1,2-a]pyridin-3-yl]methyl}butanamide]	> 7.00
CN1CCN(c2cccc3nc(CN(C)[C@H]4CCCc5cccnc54)c(CNC(=O)c4ccccc4)n23)CC1 [Example 29, 2 N-{[5-(4-Methyl-1-piperazinyl)-2-({methyl[(8S)-5,6,7,8-tetrahydro-8-quinolinyl]amino}methyl)imidazo[1,2-a]pyridin-3-yl]methyl}benzamide]	> 7.00
CN1CCN(c2cccc3nc(CN(C)[C@H]4CCCc5cccnc54)c(CNC(=O)Cc4ccccc4)n23)CC1 [Example 30, N-{[5-(4-Methyl-1-piperazinyl)-2-({methyl[(8S)-5,6,7,8-tetrahydro-8-quinolinyl]amino}methyl)imidazo[1,2-a]pyridin-3-yl]methyl}-2-phenylacetamide]	> 7.00
COC(=O)NCc1c(CN(C)[C@H]2CCCc3cccnc32)nc2cccc(N3CCN(C)CC3)n12 [Example 31, Methyl {[5-(4-methyl-1-piperazinyl)-2-({methyl[(8S)-5,6,7,8-tetrahydro-8-quinolinyl]amino}methyl)imidazo[1,2-a]pyridin-3-yl]methyl}carbamate]	> 7.00
CCOC(=O)NCc1c(CN(C)[C@H]2CCCc3cccnc32)nc2cccc(N3CCN(C)CC3)n12 [Example 32, Ethyl {[5-(4-methyl-1-piperazinyl)-2-({methyl[(8S)-5,6,7,8-tetrahydro-8-quinolinyl]amino}methyl)imidazo[1,2-a]pyridin-3-yl]methyl}carbamate]	> 7.00
CN1CCN(c2cccc3nc(CN(C)[C@H]4CCCc5cccnc54)c(CNC(=O)OCc4ccccc4)n23)CC1 [Example 33, Phenylmethyl {[5-(4-methyl-1-piperazinyl)-2-({methyl[(8S)-5,6,7,8-tetrahydro-8-quinolinyl]amino}methyl)imidazor[1,2-a]pyridin-3-yl]methyl}carbamate]	> 7.00
CN1CCN(c2cccc3nc(CN(C)[C@H]4CCCc5cccnc54)c(CNS(C)(=O)=O)n23)CC1 [Example 34, N-{[5-(4-Methyl-1-piperazinyl)-2-({methyl[(8S)-5,6,7,8-tetrahydro-8-quinolinyl]amino}methyl)imidazo[1,2-a]pyridine-3-yl]methyl}methanesulfonamide]	> 7.00
CCS(=O)(=O)NCc1c(CN(C)[C@H]2CCCc3cccnc32)nc2cccc(N3CCN(C)CC3)n12 [Example 35, N-{[5-(4-Methyl-1-piperazinyl)-2-({methyl[(8S)-5,6,7,8-tetrahydro-8-quinolinyl]amino}methyl)imidazo[1,2-a]pyridin-3-yl]methyl}ethanesulfonamide]	> 7.00
CC(C)S(=O)(=O)NCc1c(CN(C)[C@H]2CCCc3cccnc32)nc2cccc(N3CCN(C)CC3)n12 [Example 36, N-{[5-(4-Methyl-1-piperazinyl)-2-({methyl[(8S)-5,6,7,8-tetrahydro-8-quinolinyl]amino}methyl)imidazo[1,2-a]pyridin-3-yl]methyl}-2-propanesulfonamide]	> 7.00

Reference: patent US20080234318A1, “Chemical Compounds” (priority 2005, published 2008)
